Assays:
[1] = target: T1, Dual specificity mitogen-activated protein kinase kinase 6 (Homo sapiens) (UniProt P52564); experiment: Selectivity interaction (Kinase panel (KiNativ target engagement assay in Jurkat cells)) EUB0001635a MAP2K6; type: cell-based; conditions: Selectivity number of off-targets 0.0, Selectivity number of targets 233.0, Source Knowledge https://www.sciencedirect.com/science/article/pii/S2451945619300674?via%3Dihub, at 1 µM
T1 sequence (whole entry): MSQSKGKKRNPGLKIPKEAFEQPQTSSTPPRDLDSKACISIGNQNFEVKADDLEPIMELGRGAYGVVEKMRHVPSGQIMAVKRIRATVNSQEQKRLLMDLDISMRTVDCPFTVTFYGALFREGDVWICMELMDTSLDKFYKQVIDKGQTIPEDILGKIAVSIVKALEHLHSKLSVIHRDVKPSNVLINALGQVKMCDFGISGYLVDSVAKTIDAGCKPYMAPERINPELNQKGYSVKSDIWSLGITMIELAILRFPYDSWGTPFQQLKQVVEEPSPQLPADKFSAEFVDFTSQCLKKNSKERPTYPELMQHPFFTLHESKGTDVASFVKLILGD

[2] = target: Serine/threonine-protein kinase MARK2 (Homo sapiens) (UniProt Q7KZI7); experiment: Selectivity interaction (KinomeScan (DiscoverX)) EUB0001079a MARK2; conditions: at 1 µM
Chain of Serine/threonine-protein kinase MARK2 (Homo sapiens) (Q7KZI7 whole entry): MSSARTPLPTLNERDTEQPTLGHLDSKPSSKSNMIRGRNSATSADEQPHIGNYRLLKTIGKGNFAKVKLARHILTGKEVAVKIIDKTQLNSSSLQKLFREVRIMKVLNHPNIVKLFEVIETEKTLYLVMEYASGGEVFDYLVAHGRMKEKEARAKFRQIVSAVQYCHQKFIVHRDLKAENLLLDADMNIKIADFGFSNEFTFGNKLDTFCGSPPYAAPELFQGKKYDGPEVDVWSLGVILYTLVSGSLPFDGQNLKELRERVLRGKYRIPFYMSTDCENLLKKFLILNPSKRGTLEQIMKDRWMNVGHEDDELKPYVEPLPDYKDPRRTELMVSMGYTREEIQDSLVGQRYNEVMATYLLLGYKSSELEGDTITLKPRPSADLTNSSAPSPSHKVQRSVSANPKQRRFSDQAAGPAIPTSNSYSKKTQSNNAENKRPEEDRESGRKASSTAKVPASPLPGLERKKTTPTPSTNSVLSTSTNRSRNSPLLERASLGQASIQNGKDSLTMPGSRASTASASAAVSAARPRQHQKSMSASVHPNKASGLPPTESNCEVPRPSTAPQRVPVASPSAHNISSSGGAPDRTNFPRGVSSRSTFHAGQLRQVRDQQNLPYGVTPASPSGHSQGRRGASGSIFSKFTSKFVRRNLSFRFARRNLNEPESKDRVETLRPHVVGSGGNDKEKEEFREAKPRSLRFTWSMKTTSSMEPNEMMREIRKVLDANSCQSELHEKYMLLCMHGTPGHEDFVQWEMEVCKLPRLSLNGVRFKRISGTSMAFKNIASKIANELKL

[3] = target: T2, Activin receptor type-1 (Homo sapiens) (UniProt Q04771); experiment: Selectivity interaction (KinomeScan (DiscoverX)) EUB0000607a ACVR1; conditions: at 10 µM
T2 sequence (whole entry): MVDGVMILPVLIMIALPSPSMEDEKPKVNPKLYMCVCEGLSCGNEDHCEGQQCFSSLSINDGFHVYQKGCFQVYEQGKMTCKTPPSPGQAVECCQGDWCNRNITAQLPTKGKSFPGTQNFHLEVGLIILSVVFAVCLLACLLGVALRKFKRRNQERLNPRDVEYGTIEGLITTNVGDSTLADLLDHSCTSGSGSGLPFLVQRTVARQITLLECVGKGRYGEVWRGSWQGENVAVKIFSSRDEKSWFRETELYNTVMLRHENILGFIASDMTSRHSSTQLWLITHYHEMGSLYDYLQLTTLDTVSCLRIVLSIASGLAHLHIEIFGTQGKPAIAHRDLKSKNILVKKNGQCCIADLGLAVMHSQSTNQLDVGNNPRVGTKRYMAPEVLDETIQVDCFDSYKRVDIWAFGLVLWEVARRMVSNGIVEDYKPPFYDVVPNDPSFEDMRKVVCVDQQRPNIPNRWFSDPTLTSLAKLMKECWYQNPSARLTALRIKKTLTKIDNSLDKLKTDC

[4] = target: T3, Protein kinase C epsilon type (Homo sapiens) (UniProt Q02156); experiment: Selectivity interaction (KinomeScan (DiscoverX)) EUB0000655a PRKCE; conditions: at 10 µM
T3 sequence (whole entry): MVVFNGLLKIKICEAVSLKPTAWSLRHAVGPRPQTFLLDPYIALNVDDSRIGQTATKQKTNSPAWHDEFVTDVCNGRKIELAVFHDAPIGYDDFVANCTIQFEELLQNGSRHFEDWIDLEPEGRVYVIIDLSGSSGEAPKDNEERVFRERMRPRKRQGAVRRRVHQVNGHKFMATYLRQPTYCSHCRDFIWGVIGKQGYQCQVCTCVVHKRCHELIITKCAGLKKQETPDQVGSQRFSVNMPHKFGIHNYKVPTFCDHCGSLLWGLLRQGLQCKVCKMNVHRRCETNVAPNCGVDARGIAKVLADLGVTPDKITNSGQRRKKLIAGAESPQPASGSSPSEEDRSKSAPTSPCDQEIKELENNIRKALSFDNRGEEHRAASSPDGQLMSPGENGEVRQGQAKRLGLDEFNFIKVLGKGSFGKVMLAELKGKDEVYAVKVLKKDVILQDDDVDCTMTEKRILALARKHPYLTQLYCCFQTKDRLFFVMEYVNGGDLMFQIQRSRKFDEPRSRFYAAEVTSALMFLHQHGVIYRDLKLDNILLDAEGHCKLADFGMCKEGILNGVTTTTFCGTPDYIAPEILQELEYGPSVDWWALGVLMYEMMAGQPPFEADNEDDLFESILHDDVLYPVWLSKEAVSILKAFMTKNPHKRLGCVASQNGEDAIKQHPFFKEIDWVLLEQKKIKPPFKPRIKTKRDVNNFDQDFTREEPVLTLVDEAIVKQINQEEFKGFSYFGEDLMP

[5] = target: T4, Membrane-associated tyrosine- and threonine-specific cdc2-inhibitory kinase (Homo sapiens) (UniProt Q99640); experiment: Selectivity interaction (Ambit KINOMEscan and KiNATiv profiling in Jurkat cells) EUB0000090b PKMYT1; type: cell-based; conditions: at 1 µM
T4 sequence (whole entry): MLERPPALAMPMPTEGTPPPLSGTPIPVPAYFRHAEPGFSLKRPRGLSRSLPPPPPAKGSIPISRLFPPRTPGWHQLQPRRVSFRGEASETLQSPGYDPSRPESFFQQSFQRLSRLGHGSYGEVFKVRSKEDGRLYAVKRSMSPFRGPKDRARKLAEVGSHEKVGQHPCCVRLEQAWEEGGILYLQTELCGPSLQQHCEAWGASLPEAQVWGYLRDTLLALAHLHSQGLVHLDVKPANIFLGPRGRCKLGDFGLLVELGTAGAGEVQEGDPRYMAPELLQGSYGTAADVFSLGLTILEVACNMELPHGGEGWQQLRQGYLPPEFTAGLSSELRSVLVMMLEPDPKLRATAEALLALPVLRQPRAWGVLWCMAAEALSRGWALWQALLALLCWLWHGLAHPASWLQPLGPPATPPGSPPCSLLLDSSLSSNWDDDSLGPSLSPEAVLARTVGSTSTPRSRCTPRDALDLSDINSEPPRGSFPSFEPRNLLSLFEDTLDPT

SMILES: C=CC(=O)Nc1ccc(C(=O)Nc2[nH]nc3c2CN(C(=O)N[C@H](CN(C)C)c2ccccc2)C3(C)C)cc1
- % of engagement [1]: -2.9%

SMILES: Nc1cnc(N2CCc3cc(S(=O)(=O)Nc4c(F)cc(Cl)cc4F)cc(N4CCCC4=O)c32)nc1 [TP-020n]
- % of control [2]: 74%

SMILES: CNC(=O)Nc1ccc(-c2nc(N3CC4CCC(C3)O4)c3cnn(C4CCC5(CC4)OCCO5)c3n2)cc1
- % of control [3]: 90%

SMILES: CN(C)CCOc1ccc(-c2nc(-c3ccncc3)c(-c3ccc4c(c3)CC/C4=N\O)[nH]2)cc1
- % of control [4]: 100%

SMILES: CN(C)C/C=C/C(=O)Nc1ccc(C(=O)N2CCCC(Nc3ncc(Cl)c(-c4c[nH]c5ccccc45)n3)C2)cc1 (stereo not given)
- % of control [5]: 93%
